Results taken from publication PMC9054876 (Cancer Chemotherapy and Pharmacology, 2022).

Key:
clinical [1] = details: for CLpar: typical individual, 500 mg
Excerpt: This step included food status, formulation, and oral dose level.
In the second step, the remaining covariates were further evaluated, including demographics (age, body weight, race, and sex), patient characteristics (disease status, i.e., patient or healthy participant, tumor type, National Cancer Institute Organ Dysfunction Working Group [NCI-ODWG] classification of liver impairment, and baseline tumor burden), laboratory values (serum albumin, total bilirubin, alkaline phosphatase, international normalized ratio, and total protein), and co-medications (opioid analgesics and gefitinib).
SCM was applied in the structural covariate model building step, followed by an adaptive scope reduction (ASR) SCM in the following covariate searching step to reduce run times. For the SCM procedures, the forward selection p value was set to 0.01, and the backward elimination p value to 0.001. The ASR threshold p value was set to the same as the forward p value of 0.01.
Continuous covariate relationships were coded as power models (Formula 1), and categorical covariates were coded as a fractional difference to the most common category (Formula 2). An alternative ‘hockey-stick’ parameterization (Formula 3) was tested for dose as continuous covariate on bioavailability of the parent drug (Par).1 ParCovm=Cov/Covref^θm 2 ParCovm=1ifCov=Covref1+θmifCov≠Covref 3 ParCovm=1+θm1·Cov-CovrefifCov≤Covref1+θm2·Cov-CovrefifCov>Covref
Model selection and qualification was based on the changes in the objective function value (OFV) provided by NONMEM and the visual inspection of graphical diagnostics, including goodness-of-fit plots and visual predictive checks (VPCs).
The population PK analyses were performed using NONMEM version 7.3.0. Data management and further processing of NONMEM output were performed using R version 3.3.3. VPCs and covariate model building were run on PsN version 4.4.8.
The IIV terms are included on CLpar, first-order absorption rate constant (ka), zero-order absorption duration (D1), and bioavailability of parent drug (Fpar).

[2] = cited from earlier work
[3] = parameters: method as in PMID 32562690; details: cited from earlier work
[4] = parameters: method as in manuscript in preparation; details: 500 mg single dose TF2, non-compartmental analysis; ref manuscript in preparation; cited from earlier work
[5] = high-fat meal, healthy participants; cited from earlier work
[6] = cited from earlier work; remark: listed apart in the source
clinical [7] = details: human, in vivo, po
Excerpt: (§1) The association or lack of association between the observed covariates and model-derived secondary PK parameters [e.g., area under the concentration–time curve over the dosing interval at steady state (AUCτ,ss)] for patients with cancer was illustrated using bootstrap analysis-based forest plots (see ESM 1 for method details). In the bootstrap analysis, N = 100 new data sets were generated with replacement from the analysis data set. The sampling was stratified by study, and the final models were fit to each of the resampled data sets. […] For categorical covariates, the mean and its 5th and 95th percentiles of PK parameters for each category were computed. For continuous covariates, the mean and its 5th and 95th percentiles of PK parameters, corresponding to the 0–5th and 95–100th percentile of the covariate, were computed. The impact of the covariates in the forest plots were presented on a relative scale. The reference value was the arithmetic mean of the corresponding PK parameter.
(§2) The derivation of these secondary PK parameters is based on a bootstrap analysis (see following). Only participants with at least one observation above the lower limit of quantitation in the analysis data set were included in the derivation of the secondary parameters.
(§3) In the bootstrap analysis, N = 100 new data sets (with the participants in the analysis data sets with at least one observation with the same number of participants as in the analysis data sets) were drawn with replacement from the analysis data sets. The sampling was stratified by study. The final models were fit to each of the resampled data sets.
(§4) For each of the N = 100 population parameter vectors, the n observed covariate vectors were used to predict the corresponding n primary and secondary parameters, where n = the unique combination of ID and the time-varying variables formulation, μ-opioids and dose (while National Cancer Institute Organ Dysfunction Group (NCI-ODG) class was handled as a time-varying covariate in the stepwise covariate method (SCM), its baseline value was used in the derivation of the forest plots since NCI-ODG class is derived from total bilirubin, alanine aminotransferase and aspartate aminotransferase, which were also assumed to be time-constant in the forest plot).
(§5) Descriptive statistics (mean, standard deviation and the 5th and 95th percentiles) were calculated for the n secondary parameters. These summary statistics are the bootstrap estimates of the typical individual value, standard error, and 90% confidence interval of the secondary parameters.

[8] = oral, cited from earlier work
[9] = Bootstrap-derived secondary PK parameters, forest plots and model-based simulation
Excerpt: as §1, §2, §3, §4, §5

[10] = CF1 vs typical participant taking TF2 with a non-high-fat meal
[11] = fasting vs typical participant taking TF2 with a non-high-fat meal
[12] = final model, reference patient, multiplied by 0.9
[13] = fractional difference to reference category
[14] = bootstrap predicted, cancer patients
[15] = bootstrap predicted, cancer patients, 250 mg/day

CN1CCC(COc2cnc(-c3cccc(Cn4nc(-c5cccc(C#N)c5)ccc4=O)c3)nc2)CC1 [Tepotinib]
CF1 covariate on ka (clinical [1]; CF1 vs TF2): –0.442
reduction of Fpar (clinical [1]; [10]): 65.6%
reduction of ka (clinical [1]; [10]): 44.2%
TF1* covariate on ka (clinical [1]; TF1* (finely micronized) vs TF2): 0.674
TF1 covariate on ka (clinical [1]; TF1 vs TF2): 0.305
TF3 covariate on Fpar (clinical [1]; TF3 vs TF2): 0.154
CF1 covariate on Fpar (clinical [1]; capsule formulation 1 (non-micronized) vs TF2): –0.656
influence of gefitinib co-administration on tepotinib PK (clinical [1]; covariate analysis): No statistically significant influence
reduction of Fpar (clinical [1]; [11]): 20.9%
reduction of ka (clinical [1]; [11]): 56.1%
DOSE covariate on Fpar (clinical [1]; final model): –0.0412 /100 mg
D1 (zero-order absorption duration) (clinical [1]; final model, reference patient): 4.09 h
CLpar/F (apparent clearance) (clinical [1]; final model, reference patient, 500 mg TF2, fed non-high-fat meal, multiplied by 0.9 for salt to base): 20.4 L/h
ka (first-order absorption rate constant) (clinical [1]; final model, reference patient, TF2, fed non-high-fat meal): 0.278 h⁻¹
Qpar/F (clinical [1]; [12]): 1.32 L/h
Vp,par/F (clinical [1]; [12]): 1180 L
Vc,par/F (clinical [1]; final model, reference patient, multiplied by 0.9 for salt to base): 1020 L
Colorectal cancer covariate on CLpar/F (clinical [1]; fractional difference): –0.281
Hepatocellular carcinoma covariate on CLpar/F (clinical [1]; fractional difference): 0.130
NCI-ODG class > 0 covariate on Fpar (clinical [1]; fractional difference): –0.0729
Non-small cell lung cancer covariate on Vc,par/F (clinical [1]; fractional difference): –0.232
Patient/participant covariate on Vp,par/F (clinical [1]; fractional difference): –0.810
Study MS200095-0028 covariate on CLpar/F (clinical [1]; fractional difference): –0.115
μ-Opioids covariate on CLpar/F (clinical [1]; fractional difference): –0.167
Fasting state covariate on D1 (clinical [1]; [13]): –0.370
Fasting state covariate on Fpar (clinical [1]; [13]): –0.209
Fasting state covariate on ka (clinical [1]; [13]): –0.561
High-fat meal covariate on Fpar (clinical [1]; [13]): 0.320
half-life (clinical [1]; human, in vivo): ~32 h
exposure increase between 500 and 1400 mg (clinical [1]; mostly CF2, Study 001): doubling
reduction of bioavailability by liver dysfunction (NCI-ODWG) (clinical [1]; oral administration): 7.29%
Age covariate on Vc,par/F (clinical [1]; power model): 0.219
Body weight at baseline covariate on Fpar (clinical [1]; power model): –0.475
INR at baseline covariate on Qpar/F (clinical [1]; power model): 3.81
Serum albumin at baseline covariate on Qpar/F (clinical [1]; power model): 4.14
eGFR at baseline covariate on CLpar/F (clinical [1]; power model): 0.199
time dependence of PK (clinical [1]; single dose vs steady state): time-independent
CLpar (clinical [1]; eGFR 30 mL/min/1.73 m^2): 16.2 L/h
CLpar (clinical [1]; eGFR 60 mL/min/1.73 m^2): 18.6 L/h
CLpar (clinical [1]; eGFR 80 mL/min/1.73 m^2): 19.7 L/h
CLpar (clinical [1]; eGFR 110 mL/min/1.73 m^2): 20.9 L/h
dose proportionality of PK (clinical [1]; up to the therapeutic dose of 500 mg): approximately dose-proportional
share of administered dose of any single metabolic pathway ([2]; based on in vitro studies and human mass balance data): ≤ 25%
absolute bioavailability [2]: 72%
contribution to total circulating radioactivity [2]: 55%
total radiolabeled material excreted via feces ([2]; mass balance study): 77.9%
urinary excretion recovery ([2]; mass balance study): 13.6%
solubility [3]: low-solubility
total plasma AUC lower in moderate hepatic impairment than healthy participants [4]: 13%
increase in tepotinib exposure in the presence of food [5]: two-fold
effect of co-administration of tepotinib with gefitinib on exposure [6]: no effect
AUC (clinical [7]; 250 mg/day): 12300 ng·h/mL
half-life (clinical [7]; 500 mg): 102 h
AUC (clinical [7]; 500 mg/day): 22300 ng·h/mL
Cmax (clinical [7]; 500 mg/day): 1240 ng/mL
time to maximum concentration (Tmax) ([8]; steady state, fed conditions): approximately 8 h
terminal elimination half-life [8]: approximately 32 h
CLpar, mean ([9]; bootstrap predicted typical individual, cancer patients, multiplied by 0.9): 19.3 L/h
Fpar actual doses, mean [9, 14]: 1.12
Tss (time to steady-state), mean [9, 14]: 128.3 h
t1/2eff (effective half-life), mean [9, 14]: 32.1 h
Fpar 250 mg, mean ([9]; bootstrap predicted, cancer patients, 250 mg): 1.04
C max, ss 250 mg, mean [9, 15]: 683 ng/mL
Ctrough,ss 250 mg, mean [9, 15]: 523 ng/mL
Fpar 500 mg, mean ([9]; bootstrap predicted, cancer patients, 500 mg): 0.94
Ctrough,ss 500 mg, mean ([9]; bootstrap predicted, cancer patients, 500 mg/day): 952 ng/mL
Vss, mean ([9]; bootstrap predicted, cancer patients, multiplied by 0.9): 2,091 L
AUCτ,ss higher in moderate renal impairment ([9]; eGFR 39.4-59 vs mean observed eGFR 99.8 mL/min/1.73 m^2, forest plot): 2%
effect of covariates on tepotinib AUC ([9]; race, hepatic impairment, renal impairment, age, sex, body weight, opioid analgesics or gefitinib, 90% CIs within 80–125%): no or marginal effects

COc1cc2ncnc(Nc3ccc(F)c(Cl)c3)c2cc1OCCCN1CCOCC1 [gefitinib, reference compound]
effect of co-administration of tepotinib with gefitinib on exposure [6]: no effect
